Values of other authors as cited in article PMC10772668 (Clinical and Translational Science, 2023).

Details: cited from earlier work

SMILES: CN1C(=O)[C@@H](NC(=O)c2nnc(Cc3ccccc3)[nH]2)COc2ccccc21 [GSK2982772]
- Safety and tolerability (clinical development): safe and well‐tolerated
- Tolerability and ALT abnormalities (healthy participants): well‐tolerated with no reports of ALT abnormalities
